Measurements reported in patent US10118916B2, “Modulators of cystic fibrosis transmembrane conductance regulator protein” (AbbVie S.à.r.l., priority 2016, dated 2018).

Target: T1, F508delCFTR (Homo sapiens, UniProt P13569, DEL508-508)
T1 construct: expressed in transfected cells; host or cells: CFBE41o- (human lung derived epithelial cell line), doxycycline-inducible
Experiment: Cell Surface Expression-Horse Radish Peroxidase (CSE-HRP) assay
Assay type: cell-based
Conditions: CFBE41o-F508delCFTR-HRP cells; for EC50: F508delCFTR cell surface expression, luminescence, 18-24 hours at 33° C., highest concentration 20 μM; for Maximum % activity: maximum at any tested concentration, normalized to on-plate positive control (3 μM)
Description: Cell Surface Expression-Horse Radish Peroxidase (CSE-HRP) Assay:
A cellular assay for measuring the F508delCFTR cell surface expression after correction with test compounds was developed in human lung derived epithelial cell line (CFBE41o-) (Veit G et al, (2012) Mol Biol Cell. 23(21): 4188-4202). This was achieved by expressing the F508delCFTR mutation along with a horseradish peroxidase (HRP) in the fourth exofacial loop and then measuring the HRP activity using luminescence readout from these cells, CFBE41o-F508delCFTR-HRP, that were incubated overnight with the test corrector compounds. Briefly, for this primary assay, the CFBE41o-F508delCFTR-HRP cells were plated in 384-well plates (Greiner Bio-one; Cat 781080) at 4,000 cells/well along with 0.5 μg/mL doxycycline to induce the F508delCFTR-HRP expression and further incubated at 37° C., 5% CO2 for 72 hours. The test compounds were then added at the required concentrations and further incubated for 18-24 hours at 33° C. The highest concentration tested was 20 μM with an 8-point concentration response curve using a 3-fold dilution. Three replicate plates were run to determine one EC50. All plates contained negative controls (dimethyl sulfoxide, DMSO) and positive controls (3 μM of 3-[(2R,4R)-4-({[1-(2,2-difluoro-1,3-benzodioxol-5-yl)cyclopropyl]carbonyl}amino)-7-methoxy-3,4-dihydro-2H-chromen-2-yl]benzoic acid) as well as on-plate concentration response of the positive control. Post incubation, the plates were washed 5× times with Dulbecco's phosphate buffered saline (DPBS), followed by the addition of the HRP substrate, luminol (50 μL), and measuring the HRP activity using luminescence readout on EnVision® Multilabel Plate Reader (Perkin Elmer; product number 2104-0010). The raw counts from the experiment are analyzed using Accelrys® Assay Explorer v3.3.
Z′ greater than 0.5 was used as passing quality control criteria for the plates.
The Z′ is defined as: 1−[3*SDPositive Control+3*SDNegative Control/Absolute(MeanPositive Control−MeanNegative Control)] wherein “SD” is standard deviation.
The % activity measured at each of the 8 test concentrations of the test compound was normalized to the on-plate positive control using the following formula: % activity=[(test compound response−DMSO response)/(positive control response−DMSO response)]*100
The maximum % activity achieved for the test compound at any tested concentration is presented in Table 1 along with the EC50 calculated using the following general sigmoidal curve with variable Hill slope equation (described as Model 42 in the Accelrys® Assay Explorer v3.3 software): y=(a−d)/(1+(x/c)^b)+d
General sigmoidal curve with concentration, response, top, bottom, EC50 and Hill slope.
This model describes a sigmoidal curve with an adjustable baseline, a. The equation can be used to fit curves where response is either increasing or decreasing with respect to the independent variable, “x”. • “x” is a concentration of drug under test. • “y” is the response. • “a” is the maximum response, and “d” is the minimum response • “c” is the inflection point (EC50) for the curve. That is, “y” is halfway between the lower and upper asymptotes when x=c. • “b” is the slope-factor or Hill coefficient. The sign of b is positive when the response increases with increasing dose and is negative when the response decreases with increasing dose (inhibition).

T1 sequence (P13569 with tags, fused parts or gaps DEL508-508): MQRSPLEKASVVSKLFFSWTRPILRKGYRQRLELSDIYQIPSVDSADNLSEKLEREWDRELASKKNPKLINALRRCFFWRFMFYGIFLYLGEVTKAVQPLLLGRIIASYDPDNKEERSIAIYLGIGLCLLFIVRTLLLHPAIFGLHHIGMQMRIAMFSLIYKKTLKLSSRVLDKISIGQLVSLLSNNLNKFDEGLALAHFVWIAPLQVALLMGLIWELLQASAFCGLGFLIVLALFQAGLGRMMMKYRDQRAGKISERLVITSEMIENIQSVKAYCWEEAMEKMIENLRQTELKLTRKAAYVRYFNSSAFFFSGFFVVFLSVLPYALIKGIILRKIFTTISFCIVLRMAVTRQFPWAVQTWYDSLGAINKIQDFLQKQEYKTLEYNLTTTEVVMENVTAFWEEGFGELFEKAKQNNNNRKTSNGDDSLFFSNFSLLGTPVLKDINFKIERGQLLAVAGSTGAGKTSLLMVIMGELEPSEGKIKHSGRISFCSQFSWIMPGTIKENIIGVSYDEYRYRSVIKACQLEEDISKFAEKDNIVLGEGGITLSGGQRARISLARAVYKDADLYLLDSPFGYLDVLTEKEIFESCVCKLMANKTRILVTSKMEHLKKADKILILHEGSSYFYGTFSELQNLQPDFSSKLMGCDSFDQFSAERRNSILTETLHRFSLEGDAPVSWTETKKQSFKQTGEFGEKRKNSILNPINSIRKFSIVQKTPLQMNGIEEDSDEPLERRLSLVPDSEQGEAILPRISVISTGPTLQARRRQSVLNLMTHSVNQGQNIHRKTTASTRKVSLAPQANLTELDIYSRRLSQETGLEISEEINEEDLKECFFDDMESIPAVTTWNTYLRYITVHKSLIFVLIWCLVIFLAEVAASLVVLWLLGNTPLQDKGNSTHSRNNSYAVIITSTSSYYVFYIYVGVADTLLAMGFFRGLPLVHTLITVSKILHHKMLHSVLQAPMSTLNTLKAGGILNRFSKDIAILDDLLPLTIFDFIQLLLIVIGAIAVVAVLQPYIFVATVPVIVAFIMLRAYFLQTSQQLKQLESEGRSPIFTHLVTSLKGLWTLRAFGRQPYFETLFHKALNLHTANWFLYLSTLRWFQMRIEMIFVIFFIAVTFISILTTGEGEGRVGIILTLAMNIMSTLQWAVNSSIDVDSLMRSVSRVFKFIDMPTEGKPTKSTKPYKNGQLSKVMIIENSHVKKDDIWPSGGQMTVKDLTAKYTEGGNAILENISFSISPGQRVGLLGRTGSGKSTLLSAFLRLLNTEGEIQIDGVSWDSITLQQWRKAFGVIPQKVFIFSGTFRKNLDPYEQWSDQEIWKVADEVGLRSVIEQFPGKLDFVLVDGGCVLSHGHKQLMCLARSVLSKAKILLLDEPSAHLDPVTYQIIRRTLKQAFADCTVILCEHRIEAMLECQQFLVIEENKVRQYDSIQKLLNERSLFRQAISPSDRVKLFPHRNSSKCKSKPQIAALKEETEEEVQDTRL

Structure (SMILES) | EC50 [µM] | Maximum % activity [%]
COc1ccc2c(c1)O[C@@H](c1cccc(C(=O)O)c1)C[C@H]2NC(=O)C1(c2ccc(Br)cc2)CC1 [Example 43, 3-[(2R,4R)-4-{[1-(4-bromophenyl)cyclopropane-1-carbonyl]amino}-7-methoxy-3,4-dihydro-2H-1-benzopyran-2-yl]benzoic acid] | 0.28 | 39.1
COc1ccc2c(c1)O[C@@H](c1cccc(C(=O)O)c1)C[C@H]2NC(=O)C(C)(C)Oc1ccc(Cl)cc1 [Example 45, 3-{(2R,4R)-4-[2-(4-chlorophenoxy)-2-methylpropanamido]-7-methoxy-3,4-dihydro-2H-1-benzopyran-2-yl}benzoic acid] | > 20 | 15.3
COc1cccc2c1[C@@](C)(C(=O)N[C@@H]1C[C@H](c3cccc(C(=O)O)c3)Oc3ccccc31)CC2 [Example 46, 3-[(2R,4R)-4-{[(1S)-7-methoxy-1-methyl-2,3-dihydro-1H-indene-1-carbonyl]amino}-3,4-dihydro-2H-1-benzopyran-2-yl]benzoic acid] | > 20 | 1.1
COc1ccc2c(c1)[C@@](C)(C(=O)N[C@@H]1C[C@H](c3cccc(C(=O)O)c3)Oc3ccccc31)CC2 [Example 47, 3-[(2R,4R)-4-{[(1S)-6-methoxy-1-methyl-2,3-dihydro-1H-indene-1-carbonyl]amino}-3,4-dihydro-2H-1-benzopyran-2-yl]benzoic acid] | 1.06 | 38.2
CC(C)(C(=O)N[C@@H]1C[C@H](c2cccc(C(=O)O)c2)Oc2ccccc21)c1ccc(C(F)(F)F)cc1 [Example 51, 3-[(2R,4R)-4-{2-methyl-2-[4-(trifluoromethyl)phenyl]propanamido}-3,4-dihydro-2H-1-benzopyran-2-yl]benzoic acid] | 2.03 | 57.9
C[C@@]1(C(=O)N[C@@H]2C[C@H](c3cccc(C(=O)O)c3)Oc3ccccc32)CCc2ccc(Cl)cc21 [Example 53, 3-[(2R,4R)-4-{[(1R)-6-chloro-1-methyl-2,3-dihydro-1H-indene-1-carbonyl]amino}-3,4-dihydro-2H-1-benzopyran-2-yl]benzoic acid] | > 20 | 1.2
C[C@]1(C(=O)N[C@@H]2C[C@H](c3cccc(C(=O)O)c3)Oc3ccccc32)CCc2ccc(Cl)cc21 [Example 54, 3-[(2R,4R)-4-{[(1S)-6-chloro-1-methyl-2,3-dihydro-1H-indene-1-carbonyl]amino}-3,4-dihydro-2H-1-benzopyran-2-yl]benzoic acid] | > 20 | 10.4
COc1ccc2c(c1)O[C@@H](c1cccc(C(=O)O)c1)C[C@H]2NC(=O)C1(C)CCc2ccc(OC(F)(F)F)cc21 (stereo partly drawn) [Example 58, 3-[(2R,4R)-7-methoxy-4-{[1-methyl-6-(trifluoromethoxy)-2,3-dihydro-1H-indene-1-carbonyl]amino}-3,4-dihydro-2H-1-benzopyran-2-yl]benzoic acid] | 2.22 | 20.4
COC(=O)c1ccc([C@H]2C[C@@H](NC(=O)[C@]3(C)CCc4cc(Cl)ccc4O3)c3ccccc3O2)cc1 [Example 61, methyl 4-[(2R,4R)-4-{[(2S)-6-chloro-2-methyl-3,4-dihydro-2H-1-benzopyran-2-carbonyl]amino}-3,4-dihydro-2H-1-benzopyran-2-yl]benzoate] | 5.88 | 20.0
C[C@@]1(C(=O)N[C@@H]2C[C@H](c3ccc(C(=O)O)cc3)Oc3ccccc32)CCc2cc(Cl)ccc2O1 [Example 62, 4-[(2R,4R)-4-{[(2S)-6-chloro-2-methyl-3,4-dihydro-2H-1-benzopyran-2-carbonyl]amino}-3,4-dihydro-2H-1-benzopyran-2-yl]benzoic acid] | 2.65 | 22.6

Next, values leading:

EC50 [µM] | Maximum % activity [%] | Structure (SMILES)
0.28 | 28.3 | COc1ccc2c(c1)O[C@@H](c1cccc(C(=O)O)c1)C[C@H]2NC(=O)C1(c2ccc(Cl)cc2)CC1 [Example 42, 3-[(2R,4R)-4-{[1-(4-chlorophenyl)cyclopropane-1-carbonyl]amino}-7-methoxy-3,4-dihydro-2H-1-benzopyran-2-yl]benzoic acid]
0.1 | 35.3 | COc1ccc(C2(C(=O)N[C@@H]3C[C@H](c4cccc(C(=O)O)c4)Oc4cc(OC)ccc43)CC2)cc1 [Example 44, 3-[(2R,4R)-7-methoxy-4-{[1-(4-methoxyphenyl)cyclopropane-1-carbonyl]amino}-3,4-dihydro-2H-1-benzopyran-2-yl]benzoic acid]
> 20 | 4.5 | COc1ccc2c(c1)[C@](C)(C(=O)N[C@@H]1C[C@H](c3cccc(C(=O)O)c3)Oc3ccccc31)CC2 [Example 48, 3-[(2R,4R)-4-{[(1R)-6-methoxy-1-methyl-2,3-dihydro-1H-indene-1-carbonyl]amino}-3,4-dihydro-2H-1-benzopyran-2-yl]benzoic acid]
> 20 | 3.5 | Cc1ccccc1C(C)(C)C(=O)N[C@@H]1C[C@H](c2cccc(C(=O)O)c2)Oc2ccccc21 [Example 49, 3-{(2R,4R)-4-[2-methyl-2-(2-methylphenyl)propanamido]-3,4-dihydro-2H-1-benzopyran-2-yl}benzoic acid]
> 20 | 4.9 | COc1cccc2c1[C@](C)(C(=O)N[C@@H]1C[C@H](c3cccc(C(=O)O)c3)Oc3ccccc31)CC2 [Example 50, 3-[(2R,4R)-4-{[(1R)-7-methoxy-1-methyl-2,3-dihydro-1H-indene-1-carbonyl]amino}-3,4-dihydro-2H-1-benzopyran-2-yl]benzoic acid]
> 20 | 1.8 | CC(C)(C(=O)N[C@@H]1C[C@H](c2cccc(C(=O)O)c2)Oc2ccccc21)c1ccc(Cl)cc1Cl [Example 52, 3-{(2R,4R)-4-[2-(2,4-dichlorophenyl)-2-methylpropanamido]-3,4-dihydro-2H-1-benzopyran-2-yl}benzoic acid]
2.71 | 49.9 | CC1(C(=O)N[C@@H]2C[C@H](c3cccc(C(=O)O)c3)Oc3ccccc32)CCc2cc(OC(F)(F)F)ccc21 (stereo partly drawn) [Example 55, 3-[(2R,4R)-4-{[1-methyl-5-(trifluoromethoxy)-2,3-dihydro-1H-indene-1-carbonyl]amino}-3,4-dihydro-2H-1-benzopyran-2-yl]benzoic acid]
1.3 | 71.4 | COc1ccc2c(c1)OCC2(C)C(=O)N[C@@H]1C[C@H](c2cccc(C(=O)O)c2)Oc2ccccc21 (stereo partly drawn) [Example 56, 3-{(2R,4R)-4-[(6-methoxy-3-methyl-2,3-dihydro-1-benzofuran-3-carbonyl)amino]-3,4-dihydro-2H-1-benzopyran-2-yl}benzoic acid]
> 20 | 2.3 | COC(=O)c1cccc([C@H]2C[C@@H](NC(=O)C3(C)CCc4ccc(OC(F)(F)F)cc43)c3ccc(OC)cc3O2)c1 (stereo partly drawn) [Example 57, methyl 3-[(2R,4R)-7-methoxy-4-{[1-methyl-6-(trifluoromethoxy)-2,3-dihydro-1H-indene-1-carbonyl]amino}-3,4-dihydro-2H-1-benzopyran-2-yl]benzoate]
> 20 | 1.8 | COC(=O)c1ccc([C@H]2C[C@@H](NC(=O)[C@@]3(C)CCc4cc(Cl)ccc4O3)c3ccccc3O2)cc1 [Example 59, methyl 4-[(2R,4R)-4-{[(2R)-6-chloro-2-methyl-3,4-dihydro-2H-1-benzopyran-2-carbonyl]amino}-3,4-dihydro-2H-1-benzopyran-2-yl]benzoate]
> 20 | 2.3 | C[C@]1(C(=O)N[C@@H]2C[C@H](c3ccc(C(=O)O)cc3)Oc3ccccc32)CCc2cc(Cl)ccc2O1 [Example 60, 4-[(2R,4R)-4-{[(2R)-6-chloro-2-methyl-3,4-dihydro-2H-1-benzopyran-2-carbonyl]amino}-3,4-dihydro-2H-1-benzopyran-2-yl]benzoic acid]
